Patent publication US11103488B2, “Methods of treating autoimmune, respiratory and inflammatory disorders by inhalation of roflumilast N-oxide” (Incozen Therapeutics Pvt. Ltd., priority 2013, dated 2021)
Read-outs that look alike come from different tables or passages of the source.

Legend:
[1] = Lung microsome metabolic stability, dog; format: in vitro ADME; conditions: dog lung microsomes, 1 μM test item, 60 minutes, NADPH
Experimental: Metabolic stability studies were conducted using rat, dog and human lung microsomes. The protocol for the studies with rat, dog, and human lung microsomes (from Xenotech, USA) is provided below.
0.4 mg protein was preincubated with 2 mM NADPH (cofactor) in phosphate buffer (pH˜7.4) for 15 minutes at […] and then added with 1 μM test item and incubated further for 60 minutes in triplicate. The reaction mixture was terminated with methanol containing an internal standard and centrifuged further to analyze the test item remaining in the supernatant by LC-MS/MS. The percent parent compound remaining was calculated in comparison with similar samples terminated at 0 minutes.

macrophage infiltration = experiment: Acute cigarette smoke induced cell infiltration, macrophages; format: in vivo, female Balb/c mice; conditions: for Percent inhibition in macrophage infiltration: intranasal, day 1 to day 4
Experimental: Animals were acclimatized for seven days prior to the start of the experiment. The animals were randomly distributed to various groups based on their body weight. For oral administration of roflumilast and for intranasal administration of roflumilast N-oxide, roflumilast or roflumilast N-oxide were prepared as a suspension in a suitable vehicle. On day 1, mice were administered roflumilast N-oxide or roflumilast and after 1 hour, the animals were placed in a whole body exposure box. On day 1 and day 2, the mice were exposed to the mainstream smoke of 6 cigarettes, and 8 cigarettes on day 3 and day 4. Exposure to the smoke of each cigarette lasted for 10 minutes (cigarettes were completely burned in the first two minutes and followed by an air flow with animal ventilator, then 20 minutes exposure to fresh room air). After every second cigarette an additional break of 20 minutes with exposure to fresh room air was conducted. Control animals were exposed to room air chamber. From day 1 to day 4, the animals were administered roflumilast N-oxide or roflumilast. On day 5, 24 hours after the last cigarette smoke (CS) exposure, the animals were exsanguinated under anaesthesia, the trachea were cannulated and the lungs were lavaged with 0.5-ml aliquots of heparinised PBS (1 unit/ml) four times through tracheal cannula (total volume 2 ml). Bronchioalveolar (BAL) collected was stored at 2-8° C. until assayed for total cell and differential leukocyte count. BAL fluid was centrifuged (500×g for 10 minutes) and the resulting cell pellet was resuspended in 0.5 ml of heparinised saline. The total number of white blood cells was determined in BAL fluid and adjusted to 1×10^6 cell/ml. Differential cell count was calculated manually by diff-quick staining. Forty microliters of the cell suspension was centrifuged using cytospin 3 to prepare a cell smear. The cell smear was stained with a blood staining solution for differentiation and microscopically observed to identify cell type according to their morphological characteristics. The number of each cell type among 300 white blood cells in the cell smear were determined and expressed as a percentage, and the number of neutrophils and macrophages in each BAL fluid were calculated.
Roflumilast and roflumilast N-oxide as a suspension in polysorbate 80 (1% v/v) and methyl cellulose (MC) (0.5% w/v) were used for oral and intranasal administration respectively.

[2] = tested on: neutrophil infiltration (LPS-induced neutrophilia in BALF); experiment: Lipopolysaccharide (LPS) induced pulmonary neutrophilia; format: in vivo, female Sprague-Dawley rat; conditions: for ED50: Rattus norvegicus, Neutrophil, inhaled or nasal; for Percent inhibition in neutrophil infiltration: intratracheal dry powder, 30 minutes before LPS
Experimental: Roflumilast was prepared as a suspension in a suitable vehicle for oral administration. For intratracheal administration, roflumilast or roflumilast N-oxide was prepared as a dry powder mixture and administered by using a dry powder Insufflator (Penn-Century, USA) Animals were anaesthetized with ketamine and LPS solution was administered intratracheally one hour after roflumilast (at a dose of 0.3, 1, 3, and 10 mg/kg orally), or 30 minutes after roflumilast (at a dose of 10, 30 and 100 μg/kg i.t) or roflumilast N-oxide administration (at a dose of 10, 30 and 100 μg/kg, i.t). 6 hours after LPS instillation, animals were exsanguinated under anaesthesia, and then trachea were cannulated and the lungs were lavaged with 5-ml aliquots of heparinised PBS (1 unit/ml) four times through tracheal cannula (total volume 20 ml). BAL (bronchoalveolar lavage) fluid was stored at 2-8° C. until assayed for total cell and differential leukocyte count. Bronchioalveolar fluid was centrifuged (500×g for 10 minutes) and the resulting cell pellet was resuspended in 0.5 ml of heparinized saline. The total number of white blood cells were determined in BAL fluid using a blood cell counter and were adjusted to 1×10^6 cell/ml. Differential cell count was calculated manually. One hundred microliters of the cell suspension was centrifuged using cytospin 3 to prepare a cell smear. The cell smear was stained with a blood staining solution for differentiation and slides were microscopically observed to identify eosinophil according to their morphological characteristics. The number of each cell type among 300 white blood cells in the cell smear was determined and expressed as a percentage. The total number of neutrophils in each BAL fluid was calculated.
Roflumilast and roflumilast N-oxide were administered intratracheally (i.t) at doses of 100, 30, and 10 μg/kg as 1:200; 1:500; and 1:1000 drug:lactose blends, respectively.

[3] = Particle size distribution after micronization (Alpine Spiral Jet Mill); format: physicochemical; conditions: micronized
From the text: Laser diffraction measurement of particle size can use a dry method (wherein a suspension of the compound/salt in an airflow crosses the laser beam) or a wet method (wherein a suspension of the compound/salt in a liquid dispersing medium, such as isooctane (e.g. if compound is soluble in isooctane) or 0.1% Tween 80 in water, crosses the laser beam). With laser diffraction, particle size may be measured, for example, with a Malvern Mastersizer or Sympatec apparatus. For example, particle size measurement and/or analysis by laser diffraction can use any or all of (preferably all of) the following: a Malvern Mastersizer longbed version, a dispersing medium of 0.1% Tween 80 in water, a stir rate of ca. 1500 rpm, ca. 3 mins sonification prior to final dispersion and analysis, a 300 RF (Reverse Fourier) lens, and/or the Fraunhofer calculation with Malvern software. Unless specified otherwise, all d50 and d90 measurements are measured by laser diffraction using a wet method.
Provided below is an exemplary method used for micronization of roflumilast N-Oxide using an Alpine Spiral Jet Mill (HOSOKAWA). The process involved the following steps • 15 gm of Roflumilast N-oxide was weighed. • Main knob for compressed air supply was opened. • Adjusted venture pressure at 6.0 bar and ring pressure at 0.5 bar. • Roflumilast N-oxide was added at a feed rate of ˜200 mg/min manually through the hopper. • After completion of micronization, main air supply knob was turned off and micronized roflumilast N-oxide was collected

[4] = 7-day repeat dose safety study; format: in vivo, Wistar Rats
Experimental: In order to determine the safety of roflumilast N-oxide by inhalation compared to roflumilast by oral administration, a 7- and 14-day repeat dose safety study was conducted according to the protocol given in Table 5 below.

O=C(Nc1c(Cl)c[n+]([O-])cc1Cl)c1ccc(OC(F)F)c(OCC2CC2)c1 [Roflumilast N-oxide]
Percent Parent Compound Remaining, Dog [1]: 98.3%
ED50 (macrophage infiltration; Mus musculus, Macrophage, inhaled or nasal, intranasal administration, read-out: 50% inhibition (ED50) dose, macrophage infiltration): 0.049 mg/kg
Percent inhibition in macrophage infiltration (macrophage infiltration; 0.003 mg/kg): 50.68%
Percent inhibition in macrophage infiltration (macrophage infiltration; 0.03 mg/kg): 55.10%
Percent inhibition in macrophage infiltration (macrophage infiltration; 0.3 mg/kg): 62.79%
Percent inhibition in macrophage infiltration (macrophage infiltration; 3 mg/kg): 63.35%
ED50 ([2]; Intratracheal (Table 5), read-out: ED50 in Lipopolysaccharide induced pulmonary neutrophilia in female Sprague-Dawley rat model): 0.027 mg/kg
ED50 ([2]; intratracheal administration, read-out: 50% inhibition (ED50) dose, neutrophil infiltration): 0.027 mg/kg
Percent inhibition in neutrophil infiltration ([2]; 10 μg/kg): 37.52%
Percent inhibition in neutrophil infiltration ([2]; 30 μg/kg): 49.66%
Percent inhibition in neutrophil infiltration ([2]; 100 μg/kg): 69.48%
Particle Size Distribution (PSD), D10 [3]: 0.777 μm
Particle Size Distribution (PSD), D50 [3]: 1.564 μm
Particle Size Distribution (PSD), D90 [3]: 3.021 μm
MORTALITY ([4]; Intratracheal, 1000 ug/kg/day, 7 days): No Mortality
Therapeutic window (safe dose relative to ED50) ([4]; intratracheal 1000 μg/kg versus ED50 of 27 μg/kg): more than 37 fold
Overall safety in repeat dose study ([4]; intratracheal administration, 1000 μg/kg): found to be safe
